Series [1] concerns suppurative hidradenitis. Conditions: cited from earlier work.
The subject of series [2] is suppurative hidradenitis. Conditions: oral; open study on 80 patients; cited from earlier work.
In series [3] the test system is suppurative hidradenitis. Briefly: clinical observation of oral zinc gluconate in 20 patients with suppurative hidradenitis. Further details: key to Rep (response of the individual patient): CR: complete remission; PR: partial remission. Format: in vivo, human. The method, then: The efficacy of zinc gluconate in the treatment of suppurative hidradenitis was verified by the clinical observation performed on 20 patients, 16 of whom were monitored for a period of up to 24 months.
20 patients, 14 women and 6 men, from 23 to 72 years old, whose history of the disease ranged from 6 to 13 years, were placed on 90 mg of zinc gluconate per day for a period of a few months to 3 years.
In 34% of the cases, the location of the lesions was inguinal, axillary in 24% of the cases, and on the buttocks in 17% of the cases. The other affected regions in 5% to 7% of the cases were the chest, the pubis or the perineum.
“Dose 1” is the dose administered at the start of the treatment. “Dose 2” is the maintenance dose. The medical monitoring was generally from 4 to 8 months, and in a few cases it was extended beyond 12 months.

Series [4] is described as follows: tolerance to oral zinc gluconate doses. Format: in vivo, human. Conditions: for example 90 mg/day.
For series [5] the following is noted: Vidal monograph, overdose section; cited from earlier work.
The mark [6] stands for this setting: of 20 patients, 90 mg zinc gluconate per day, monitoring for several months.

Data on three compounds can be found in patent US20090215889A1, “Novel Use of Zinc Gluconate for Treating Hydradenitis Suppurativa” (LABCATAL, priority 2005, published 2009).

“And” between values parts separate entries of the source, which are not always exact repeats. Equal entries are not always repeated.

As to `CC(=O)O[C@]1(C(C)=O)CC[C@H]2[C@@H]3C=C(Cl)C4=CC(=O)[C@@H]5C[C@@H]5[C@]4(C)[C@H]3CC[C@@]21C` [cyproterone acetate], the efficacy result in series [1] (100 mg/day of cyproterone acetate, small number of patients) is “efficacy only at large doses”. In series [1] (dose reduced to 50 mg), the “outcome on dose reduction” value is on record as “recurrence”.
Take `CC1=C(/C=C/C(C)=C/C=C/C(C)=C\C(=O)O)C(C)(C)CCC1` [isotretinoin]: the results of treatment in series [2] is recorded as “very mediocre results”.
In the case of zinc gluconate, the “patients for whom the treatment proved to be ineffective” value in series [3] (of 20 patients, 90 mg zinc gluconate per day) is listed as “one”. Moreover, in series [3] (setting [6]), the “patients showing a full remission of the disease” value was 9 patients, the “patients showing a full remission of the disease (percentage)” value came to 45%, the “patients showing a partial remission” value was 6 patients and the “patients showing a partial remission (percentage)” value was determined as 30%. For the same compound, the “efficacy in the treatment of suppurative hidradenitis” value in series [3] (oral, 60 to 120 mg per day attack treatment, 15 to 90 mg per day maintenance treatment) is “satisfactory efficacy”. Besides, the “Rep (response of the individual patient)” value in series [3] (patient (No. 1-20), oral, Dose 1 60-120 mg/day at start, Dose 2 maintenance, monitoring 3 to >12 months) is “PR (6×) and CR (9×) and ineff”. In series [4], the observed side effects result is reported as “only digestive” and the systemic toxicity entry is on record as “no systemic toxicity to be feared”. The tolerance entry in series [4] (i.e. 6 gel capsules containing a 15 mg dose) is given as “usually good”. In series [5], the “probability of an acute intoxication” value is “zero”.
